Here are results for four molecules from ChEMBL document CHEMBL1149714 (2007).

Molecules are shown by their SMILES. Converted amounts (≈) assume the structure as drawn.

Common to all, as to type: functional
Assay [1] has as its system Escherichia coli. In words: Antibacterial activity against Escherichia coli NIHJJC2 after 20 hrs by agar dilution method. (In agar dilution the substance is mixed into plates at graded concentrations.)
The test system of the next assay is Streptococcus pneumoniae. In words: Antibacterial activity against penicillin resistant Streptococcus pneumoniae SR-16675 after 20 hrs by agar dilution method.
The subject of assay [2] is Escherichia coli. Description: Antibacterial activity against Toho 2 (ESBL) producing Escherichia coli SR-21003 after 20 hrs by agar dilution method.
Assay [3] relates to Pseudomonas aeruginosa. Description: Antibacterial activity against Imipenem resistant Pseudomonas aeruginosa SR-6554 after 20 hrs by agar dilution method.
Assay [4] concerns Haemophilus influenzae. Description: Antibacterial activity against beta-lactamase negative ampicillin resistant Haemophilus influenzae SR-11435 after 20 hrs by agar dilution method.
Assay [5] concerns Enterobacter cloacae. Description: Antibacterial activity against Enterobacter cloacae ATCC 13047 after 20 hrs by agar dilution method. As to conditions: ATCC 13047, 20 h.
Assay [6] deals with Pseudomonas aeruginosa. In words: Antibacterial activity against CAZ susceptible Pseudomonas aeruginosa SR24 infected in mouse after 7 days. The conditions noted are these: 168 h.
A further assay concerns Staphylococcus aureus. In words: Antibacterial activity against […] Staphylococcus aureus SMITH after 20 hrs by agar dilution method.
In a further assay the test system is Moraxella catarrhalis. In words: Antibacterial activity against Moraxella catarrhalis ATCC 43617 after 20 hrs by agar dilution method. The conditions noted are these: ATCC 43617, 20 h.
Assay [7] concerns Pseudomonas aeruginosa. Description: Antibacterial activity against CAZ resistant Pseudomonas aeruginosa SR24-12 infected in mouse after 7 days. The conditions noted are these: 168 h.
For assay [8], the system named is Pseudomonas aeruginosa. In words: Antibacterial activity against AmpC hyperproducing Pseudomonas aeruginosa SR24-12 after 20 hrs by agar dilution method.
Assay [9] has as its system Pseudomonas aeruginosa. In words: Antibacterial activity against Pseudomonas aeruginosa SR24 after 20 hrs by agar dilution method.
In assay [10] the test system is Pseudomonas aeruginosa. In words: Antibacterial activity against Pseudomonas aeruginosa SR-5393 after 20 hrs by agar dilution method.
The test system of assay [11] is Haemophilus influenzae. Description: Antibacterial activity against Haemophilus influenzae ATCC 49766 after 20 hrs by agar dilution method. As to conditions: ATCC 49766, 20 h.
Assay [12] has as its system Enterobacter cloacae. Description: Antibacterial activity against AmpC producing Enterobacter cloacae SR-4321 after 20 hrs by agar dilution method.

Broadly, the ED50 is the dose at which the effect has come halfway, by size or by number of responders. For `CC(C)(O/N=C(\C(=O)N[C@@H]1C(=O)N2C(C(=O)[O-])=C(C[n+]3ccccc3)CS[C@H]12)c1csc(N)n1)C(=O)O` [CEFTAZIDIME], the MIC amounted to 0.25 µg/mL (≈ 0.457 µM) against Escherichia coli [1]; 8 µg/mL (≈ 14.6 µM) in the assay on Streptococcus pneumoniae; 1 µg/mL (≈ 1.83 µM) against Escherichia coli [2]; 32 µg/mL (≈ 58.5 µM) against Pseudomonas aeruginosa [3]; 0.125 µg/mL (≈ 0.229 µM) with Haemophilus influenzae [4]; 8 µg/mL (≈ 14.6 µM) with Enterobacter cloacae [5]. Besides, the MIC with Staphylococcus aureus is 8 µg/mL (≈ 14.6 µM); with Moraxella catarrhalis, 0.063 µg/mL (≈ 0.115 µM); against Pseudomonas aeruginosa [8], 64 µg/mL (≈ 117 µM); with Pseudomonas aeruginosa [9], 0.5 µg/mL (≈ 0.915 µM); in the assay with Pseudomonas aeruginosa [10], 2 µg/mL (≈ 3.66 µM); with Haemophilus influenzae [11], 0.063 µg/mL (≈ 0.115 µM). This molecule showed an MIC against Enterobacter cloacae [12] of 64 µg/mL (≈ 117 µM). The results for the median effective dose (ED50) in the assay with Pseudomonas aeruginosa [6] and in the assay with Pseudomonas aeruginosa [7] were 2.83 mg/kg and 127 mg/kg, respectively.

Regarding `CNCCCn1ccc2c1ccc[n+]2CC1=C(C(=O)[O-])N2C(=O)[C@@H](NC(=O)/C(=N\O[C@@H](C)C(=O)O)c3nc(N)sc3Cl)[C@H]2SC1`, the MIC against Escherichia coli [1] was 0.25 µg/mL (≈ 0.369 µM); with Streptococcus pneumoniae, 2 µg/mL (≈ 2.95 µM); against Escherichia coli [2] it was 4 µg/mL (≈ 5.91 µM); with Pseudomonas aeruginosa [3], 8 µg/mL (≈ 11.8 µM); in the assay with Haemophilus influenzae [4], 0.063 µg/mL (≈ 0.093 µM); with Enterobacter cloacae [5], 0.5 µg/mL (≈ 0.738 µM). Moreover, the MIC in the assay with Staphylococcus aureus was found to be 1 µg/mL (≈ 1.48 µM); in the assay with Moraxella catarrhalis, 0.016 µg/mL (≈ 0.0236 µM); with Pseudomonas aeruginosa [8] it was 4 µg/mL (≈ 5.91 µM); in the assay with Pseudomonas aeruginosa [9] it was 1 µg/mL (≈ 1.48 µM); against Pseudomonas aeruginosa [10], 2 µg/mL (≈ 2.95 µM); with Haemophilus influenzae [11] it was 0.032 µg/mL (≈ 0.0473 µM). The molecule also yielded an MIC in the assay with Enterobacter cloacae [12] of 2 µg/mL (≈ 2.95 µM). The values for the median effective dose (ED50) in the assay on Pseudomonas aeruginosa [6] and in the assay with Pseudomonas aeruginosa [7] were 1.4 mg/kg and 5.32 mg/kg, respectively.

Regarding `C=C(O/N=C(\C(=O)N[C@@H]1C(=O)N2C(C(=O)[O-])=C(C[n+]3cccc4c3ccn4CCCNC)CS[C@H]12)c1nc(N)sc1Cl)C(=O)O`, the MIC against Escherichia coli [1] came to 0.25 µg/mL (≈ 0.37 µM); against Streptococcus pneumoniae, 2 µg/mL (≈ 2.96 µM); against Escherichia coli [2], 1 µg/mL (≈ 1.48 µM); in the assay with Pseudomonas aeruginosa [3], 32 µg/mL (≈ 47.4 µM); with Haemophilus influenzae [4], 0.063 µg/mL (≈ 0.0933 µM); in the assay with Enterobacter cloacae [5], 0.25 µg/mL (≈ 0.37 µM). Further, the MIC in the assay with Staphylococcus aureus amounted to 0.5 µg/mL (≈ 0.741 µM); against Moraxella catarrhalis, 0.016 µg/mL (≈ 0.0237 µM); with Pseudomonas aeruginosa [8], 8 µg/mL (≈ 11.8 µM); in the assay with Pseudomonas aeruginosa [9] it was 2 µg/mL (≈ 2.96 µM); with Pseudomonas aeruginosa [10], 8 µg/mL (≈ 11.8 µM); against Haemophilus influenzae [11], 0.032 µg/mL (≈ 0.0474 µM). Further, in the assay with Enterobacter cloacae [12], the MIC worked out at 1 µg/mL (≈ 1.48 µM).

Turning to `CNCCCn1ccc2c1ccc[n+]2CC1=C(C(=O)[O-])N2C(=O)[C@@H](NC(=O)/C(=N\OC3(C(=O)O)CCC3)c3nc(N)sc3Cl)[C@H]2SC1`, the MIC worked out at 1 µg/mL (≈ 1.42 µM) against Escherichia coli [1]; 4 µg/mL (≈ 5.69 µM) against Streptococcus pneumoniae; 4 µg/mL (≈ 5.69 µM) in the assay on Escherichia coli [2]; 16 µg/mL (≈ 22.8 µM) against Pseudomonas aeruginosa [3]; 0.063 µg/mL (≈ 0.0896 µM) with Haemophilus influenzae [4]; 2 µg/mL (≈ 2.84 µM) against Enterobacter cloacae [5]. The MIC with Staphylococcus aureus was 1 µg/mL (≈ 1.42 µM); against Moraxella catarrhalis it was 0.016 µg/mL (≈ 0.0228 µM); in the assay on Pseudomonas aeruginosa [8] it was 4 µg/mL (≈ 5.69 µM); in the assay on Pseudomonas aeruginosa [9] it was 1 µg/mL (≈ 1.42 µM); in the assay with Pseudomonas aeruginosa [10], 4 µg/mL (≈ 5.69 µM); against Haemophilus influenzae [11], 0.032 µg/mL (≈ 0.0455 µM). In the assay on Enterobacter cloacae [12], this molecule had an MIC of 4 µg/mL (≈ 5.69 µM).
